This note sets out measurements from PubChem BioAssay (NCI).

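1) Cells in 96-well plates. 2) Compound, 48 h, 5 concentrations. 3) Linear interpolation between surrounding doses. 4) Unreached endpoint = highest concentration. GI50 = concentration required for 50% inhibition of growth. Definition used: TGI = concentration required for complete inhibition of growth.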

What all share (assay): inhibition of tumour cell growth, NCI panel, 48 h
In assay [1] the test system is HOP-92 NSCLC.
Assay [2] deals with SN12C renal.
For assay [3], the system named is NCI-H226 lung.
In assay [4] the test system is U251 CNS.
The subject of assay [5] is HL-60(TB) leukemia.
The test system of assay [6] is OVCAR-4 ovarian.
For assay [7], the system named is HCT-15 colon.
The subject of assay [8] is EKVX NSCLC.
In assay [9] the test system is SR leukemia.
The subject of assay [10] is NCI/ADR-RES ovarian.

Regarding `COc1ccc2nc3cccc(C(=O)NCCN(C)C)c3nc2c1`, the TGI is more than 100 µM in assay [1]; 4.93 µM in assay [2]; 3.85 µM in assay [3]; 11.3 µM in [4]; 4.89 µM in assay [5]; 8.72 µM in [6]. The TGI in [7] is 6.15 µM; in [8] it was 12.7 µM; in assay [9] it was more than 100 µM.
`CC1=C(C(=O)Nc2ccccc2)C(c2ccc(C(C)C)cc2)C(C(=O)Nc2ccccc2)=C(C)N1`: the TGI in assay [1] was 32.5 µM; in [2], 27.8 µM; in assay [3], 54.9 µM; in [4], 45.1 µM; in assay [5], 30.7 µM; in assay [6] it was more than 100 µM. For the same molecule, the figures for the TGI in assay [7], in assay [8] and in assay [9] were 61.4 µM, more than 88 µM and 55.5 µM, respectively.
With `CC(=O)O[C@H]1C=CC23OC(=O)[C@]1(C)[C@H]2[C@H](C(=O)O)C12CC(=O)[C@@](CO)(CC[C@H]13)C2`, the TGI in assay [1], in assay [2], in assay [3], in assay [4], in [5] and in assay [6] was more than 100 µM throughout. Further, the TGI in assay [7], in [8] and in [9] was more than 100 µM throughout.
Take `C[n+]1c(N)n(C(=O)OCc2ccccc2)c(=O)c2c1ncn2C(=O)OCc1ccccc1`: the TGI was more than 100 µM in [2]; 59.8 µM in [3]; more than 100 µM in [4]; more than 100 µM in assay [5]; more than 100 µM in assay [6]; more than 100 µM in [7]. This molecule also gave a TGI in assay [8] of more than 100 µM.
In the case of `COC(=O)Cc1nc2ccccc2o1`, the TGI in [1] was more than 100 µM; in assay [2], more than 100 µM; in assay [3] it was more than 100 µM; in [4], more than 100 µM; in assay [5], 41.4 µM; in [6], more than 100 µM. Also, the TGI in assay [7], in assay [8] and in assay [9] was more than 100 µM in each case.
`COc1ccc(C(=O)O/N=C2/CCC/C2=C\c2ccccc2)cc1`: the TGI in assay [1], in assay [2], in [3], in assay [4], in assay [5] and in assay [6] was more than 100 µM throughout. In addition, the TGI in assay [7], in [8] and in assay [9] was more than 100 µM in each case.
For `COc1ccc(C2=NOP(c3ccccc3)(c3ccccc3)(c3ccccc3)C2)cc1`, the TGI in assay [1] was 53.2 µM; in assay [2], more than 100 µM; in assay [3] it was 98.4 µM; in assay [4] it was more than 93.1 µM; in assay [5], 14 µM; in [6], more than 100 µM. Moreover, the values for the TGI in [7], in assay [8] and in assay [9] were more than 53 µM, more than 100 µM and 34.9 µM, respectively.
`Cn1cc(NC(=O)c2cc(NC(=O)CCCCCCC(=O)Nc3cc(C(=O)Nc4cc(C(=O)NCCC(=N)N)n(C)c4)n(C)c3)cn2C)cc1C(=O)NCCC(=N)N`: the TGI is more than 100 µM in [1]; 33.1 µM in assay [2]; 68.8 µM in [4]; 8.75 µM in assay [5]; more than 100 µM in assay [6]; more than 100 µM in assay [7]. Besides, in assay [8], the TGI was more than 100 µM.
In the case of `Nc1c(-c2nc3ccccc3[nH]2)sc(=S)n1-c1ccc(Cl)cc1`, the TGI in assay [2] is 50.1 µM; in assay [3] it was 52.2 µM; in assay [4], 53.9 µM; in [5], more than 100 µM; in assay [6], 40.4 µM; in assay [7], 61.8 µM. The same molecule displayed a TGI in assay [8] of 67.4 µM.
With `CC(C)(C)C(=O)OCc1nc2cc3c(cc2c(=O)[nH]1)CCC3=O`, the GI50 in assay [1], in [2], in [3], in assay [4], in assay [5] and in assay [10] was more than 100 µM in each case. Also, the GI50 in assay [6] and in [7] was more than 100 µM throughout. Also, the TGI in assay [1], in assay [2], in assay [3], in assay [4], in assay [5] and in [10] was more than 100 µM throughout. For the same molecule, the TGI in assay [6] and in [7] was more than 100 µM each time.
With `Nc1ccc(C(=O)N/C(=C\c2cccc([N+](=O)[O-])c2)c2nc3c4c(ccc3[nH]2)C(=O)c2ccccc2C4=O)cc1`, the TGI in assay [1] was 93.4 µM; in assay [2] it was more than 100 µM; in [4] it was more than 100 µM; in [6], 43.4 µM; in [7], more than 100 µM; in assay [8] it was more than 100 µM.
As to `CC(C)(C)OC(=O)N1N=NC2C3OC(CC3=O)C21` (stereo unspecified), the TGI was more than 100 µM in assay [1]; more than 100 µM in assay [2]; 8.96 µM in [3]; more than 100 µM in assay [4]; more than 100 µM in assay [7]; more than 100 µM in [8]. For the same molecule, the TGI in assay [9] was more than 100 µM.
Regarding `C[N+](C)([O-])CCCNc1ccnc2cccc([N+](=O)[O-])c12`, the TGI in [2] was more than 100 µM; in assay [3], more than 100 µM; in assay [4], more than 100 µM; in [5], 54.1 µM; in [6] it was 55.3 µM; in [7] it was 61.6 µM. Further, the TGI in [8] and in assay [9] was more than 100 µM in each case.
With `O=C(/C(=C/c1ccccc1)c1ccccc1)N1c2ccccc2CC1c1c[nH]c2ccccc12` (stereo unspecified), the TGI in assay [1], in assay [2], in assay [3], in assay [4], in assay [5] and in assay [6] was more than 100 µM in each case. For the same molecule, the TGI in [7], in [8] and in assay [9] was more than 100 µM each time.
Consider `COc1ccc2c(c1)OCCC1=C2SCC2(C)CCN=C12` (stereo unspecified), for which the TGI in [2], in [3], in assay [4], in [5] and in [6] was more than 100 µM each time.
